Values belong to the molecule of their own block, whether it stands above or below them.
System: K98450-129-R-PDC multicell spheroids, viability
Assay: Anticancer human tumor K98450-129-R-PDC patient-derived colon adenocarcinoma cell line growth inhibition [PI3K]
Details: for IC50: curve of first compound; for viability, T/C: stronger effect = lower value
In short: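 Stroma-containing spheroids: tumor line, pooled-donor HUVEC, hMSC. Treatments: targeted agents with PI3K inhibitors. Dosing: clinically relevant, half-log spacing, 10 microM ceiling without known Cmax. Read-out: cell viability.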

[1] = second compound 0.0316 µM, first compound 0.0316 µM
[2] = second compound 0.0316 µM, first compound 0.1 µM
[3] = second compound 0.0316 µM, first compound 0.316 µM
[4] = second compound 0.0316 µM, first compound 1 µM
[5] = second compound 0.0316 µM, first compound 3.16 µM
[6] = second compound 0.0316 µM, first compound 10 µM
[7] = second compound 0.1 µM, first compound 0.0316 µM
[8] = second compound 0.1 µM, first compound 0.1 µM
[9] = second compound 0.1 µM, first compound 0.316 µM
[10] = second compound 0.1 µM, first compound 1 µM
[11] = second compound 0.1 µM, first compound 3.16 µM
[12] = second compound 0.1 µM, first compound 10 µM
[13] = second compound 0.316 µM, first compound 0.0316 µM
[14] = second compound 0.316 µM, first compound 0.1 µM
[15] = second compound 0.316 µM, first compound 0.316 µM
[16] = second compound 0.316 µM, first compound 1 µM
[17] = second compound 0.316 µM, first compound 3.16 µM
[18] = second compound 0.316 µM, first compound 10 µM
[19] = second compound 1 µM, first compound 0.0316 µM
[20] = second compound 1 µM, first compound 0.1 µM
[21] = second compound 1 µM, first compound 0.316 µM
[22] = second compound 1 µM, first compound 1 µM
[23] = second compound 1 µM, first compound 3.16 µM
[24] = second compound 1 µM, first compound 10 µM
[25] = second compound 3.16 µM, first compound 0.0316 µM
[26] = second compound 3.16 µM, first compound 0.1 µM
[27] = second compound 3.16 µM, first compound 0.316 µM
[28] = second compound 3.16 µM, first compound 1 µM
[29] = second compound 3.16 µM, first compound 3.16 µM
[30] = second compound 3.16 µM, first compound 10 µM
[31] = second compound 10 µM, first compound 0.0316 µM
[32] = second compound 10 µM, first compound 0.1 µM
[33] = second compound 10 µM, first compound 0.316 µM
[34] = second compound 10 µM, first compound 1 µM
[35] = second compound 10 µM, first compound 3.16 µM
[36] = second compound 10 µM, first compound 10 µM
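Also: spheroids exposed to agents for seven days before read-out.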

IC50 (second compound 0.0316 µM): > 10 µM
IC50 (second compound 0.1 µM): > 10 µM
IC50 (second compound 0.316 µM): > 10 µM
IC50 (second compound 1 µM): > 10 µM
IC50 (second compound 3.16 µM): > 10 µM
IC50 (second compound 10 µM): > 10 µM
SMILES: CC(Cn1ccc(-c2ccc(C#N)c(Cl)c2)n1)NC(=O)c1cc(C(C)O)[nH]n1 (stereo unspecified) + Cc1nc(NC(=O)N2CCCC2C(N)=O)sc1-c1ccnc(C(C)(C)C(F)(F)F)c1
viability, T/C [1]: 103%
viability, T/C [2]: 98.6%
viability, T/C [3]: 107%
viability, T/C [4]: 105%
viability, T/C [5]: 99.8%
viability, T/C [6]: 103%
viability, T/C [7]: 108%
viability, T/C [8]: 99.3%
viability, T/C [9]: 104%
viability, T/C [10]: 94.2%
viability, T/C [11]: 99.5%
viability, T/C [12]: 103%
viability, T/C [13]: 104%
viability, T/C [14]: 94.4%
viability, T/C [15]: 99.3%
viability, T/C [16]: 98.6%
viability, T/C [17]: 102%
viability, T/C [18]: 103%
viability, T/C [19]: 86.4%
viability, T/C [20]: 101%
viability, T/C [21]: 98.3%
viability, T/C [22]: 88.8%
viability, T/C [23]: 98.2%
viability, T/C [24]: 84.8%
viability, T/C [25]: 85.1%
viability, T/C [26]: 81.4%
viability, T/C [27]: 86.8%
viability, T/C [28]: 84%
viability, T/C [29]: 94%
viability, T/C [30]: 85.8%
viability, T/C [31]: 75.6%
viability, T/C [32]: 72.1%
viability, T/C [33]: 80.3%
viability, T/C [34]: 81.1%
viability, T/C [35]: 80.8%
viability, T/C [36]: 74.3%

IC50 (second compound 0.0316 µM): > 10 µM
IC50 (second compound 0.1 µM): > 10 µM
IC50 (second compound 0.316 µM): > 10 µM
IC50 (second compound 1 µM): > 10 µM
IC50 (second compound 3.16 µM): > 10 µM
IC50 (second compound 10 µM): > 10 µM
SMILES: CC1(C)CCC(Nc2ncc(C(F)(F)F)c(-c3c[nH]c4c(P(C)(C)=O)c(C#N)ccc34)n2)CN1 (stereo unspecified) + Cc1nc(NC(=O)N2CCCC2C(N)=O)sc1-c1ccnc(C(C)(C)C(F)(F)F)c1
viability, T/C [1]: 118%
viability, T/C [2]: 101%
viability, T/C [3]: 94.7%
viability, T/C [4]: 68.7%
viability, T/C [5]: 69.8%
viability, T/C [6]: 64.6%
viability, T/C [7]: 116%
viability, T/C [8]: 104%
viability, T/C [9]: 87.2%
viability, T/C [10]: 67.4%
viability, T/C [11]: 71.1%
viability, T/C [12]: 67.6%
viability, T/C [13]: 104%
viability, T/C [14]: 102%
viability, T/C [15]: 84.7%
viability, T/C [16]: 69%
viability, T/C [17]: 69.7%
viability, T/C [18]: 66.7%
viability, T/C [19]: 103%
viability, T/C [20]: 96.8%
viability, T/C [21]: 85.8%
viability, T/C [22]: 69.6%
viability, T/C [23]: 70%
viability, T/C [24]: 63.4%
viability, T/C [25]: 88.1%
viability, T/C [26]: 95.5%
viability, T/C [27]: 83%
viability, T/C [28]: 67.8%
viability, T/C [29]: 67.4%
viability, T/C [30]: 56.5%
viability, T/C [31]: 81.6%
viability, T/C [32]: 85.5%
viability, T/C [33]: 70%
viability, T/C [34]: 60.8%
viability, T/C [35]: 62.4%
viability, T/C [36]: 50.5%

IC50 (second compound 0.0316 µM): > 10 µM
IC50 (second compound 0.1 µM): > 10 µM
IC50 (second compound 0.316 µM): > 10 µM
IC50 (second compound 1 µM): > 10 µM
IC50 (second compound 3.16 µM): > 10 µM
IC50 (second compound 10 µM): > 10 µM
SMILES: Cn1nccc1Nc1nccc(-c2ccn(C(CO)c3ccc(Cl)c(F)c3)c(=O)c2)n1 (stereo unspecified) + Cc1nc(NC(=O)N2CCCC2C(N)=O)sc1-c1ccnc(C(C)(C)C(F)(F)F)c1
viability, T/C [1]: 107%
viability, T/C [2]: 97.7%
viability, T/C [3]: 103%
viability, T/C [4]: 109%
viability, T/C [5]: 97.2%
viability, T/C [6]: 89.2%
viability, T/C [7]: 114%
viability, T/C [8]: 104%
viability, T/C [9]: 100%
viability, T/C [10]: 92.6%
viability, T/C [11]: 96.7%
viability, T/C [12]: 97.8%
viability, T/C [13]: 104%
viability, T/C [14]: 103%
viability, T/C [15]: 94.1%
viability, T/C [16]: 98.6%
viability, T/C [17]: 98.5%
viability, T/C [18]: 83.3%
viability, T/C [19]: 91.6%
viability, T/C [20]: 95.2%
viability, T/C [21]: 93.5%
viability, T/C [22]: 84.9%
viability, T/C [23]: 98.6%
viability, T/C [24]: 80.8%
viability, T/C [25]: 78.9%
viability, T/C [26]: 86.1%
viability, T/C [27]: 87%
viability, T/C [28]: 77.9%
viability, T/C [29]: 85.4%
viability, T/C [30]: 64.7%
viability, T/C [31]: 71%
viability, T/C [32]: 70.7%
viability, T/C [33]: 72.2%
viability, T/C [34]: 75%
viability, T/C [35]: 77.8%
viability, T/C [36]: 50.9%
